Laboratory results as given in patent US11917959B2, “Multi-ear system to enhance monocot plant yield” (Monsanto Technology LLC, priority 2015, dated 2024).

Test system: diploid maize plant
Test: Multibud induction in vitro, embryo axis method (Example 8)
Format: in vivo
Procedure: Seeds of a diploid maize plant were surface sterilized comprising immersion using standard methods of the art and then germinated in vitro in growth media. One of the resulting seedlings was dissected from its seed two days after germination (embryo axis method). The dissected axis was then subjected to a multibud induction treatment comprising transfer to fresh multibud induction media containing cytokinin in the form of 10 mg/L BAP. After seven days in the multibud bud induction media, the treated seedlings were transferred back to a hormone-free regeneration media. […] These multibuds were dissected from the mother plant and transferred to rooting media comprising IBA and IAA. After approximately one week, the multibud-derived plants were transplanted into 10 inch pots and allowed to grow in a greenhouse until it was clear that each autonomously-growing multibud-derived shoot had formed ears and tassels that nicked. Each ear was then pollinated from the tassel growing in the same pot and then all plants were allowed to grow in greenhouse conditions until seed set.

With `c1ccc(CNc2ncnc3nc[nH]c23)cc1` [BAP, 6-Benzylaminopurine, N-(Phenylmethyl)-7H-pruin-6-amine] the “seed borne by ears of multibud-derived plants” value (10 mg/L BAP) was “dozens of seed each” and the multibud formation (10 mg/L BAP for seven days, after approximately twenty days) was “induced multibuds could be seen growing from the nodal regions of the stem”.
